# Structures can show the parent of a compound that is named as a salt.
# Biological target: Sphingosine 1-phosphate receptor 1 (Homo sapiens, UniProt P21453)
# Assay: direct activation of human S1P1 – cell-based, agonist mode, 60K MLSMR set, dose response (AID 468)
# [1] = inactive by the depositor's call
# Chain of Sphingosine 1-phosphate receptor 1 (P21453 whole entry): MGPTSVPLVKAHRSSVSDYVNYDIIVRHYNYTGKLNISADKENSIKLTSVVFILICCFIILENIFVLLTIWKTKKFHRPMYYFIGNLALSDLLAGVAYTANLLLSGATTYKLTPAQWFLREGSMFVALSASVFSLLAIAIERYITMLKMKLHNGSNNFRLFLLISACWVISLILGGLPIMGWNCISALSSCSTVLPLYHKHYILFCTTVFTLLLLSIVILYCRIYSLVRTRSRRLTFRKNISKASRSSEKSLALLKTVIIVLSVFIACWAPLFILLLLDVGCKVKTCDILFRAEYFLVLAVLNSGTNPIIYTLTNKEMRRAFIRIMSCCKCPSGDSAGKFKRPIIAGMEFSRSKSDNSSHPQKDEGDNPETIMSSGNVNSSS
EC50 [1],EC50,SMILES
16.1 µM,–,"COc1ccc2ncn(-c3ccccc3)c2c1 [6-methoxy-1-phenyl-1H-1,3-benzodiazole]"
–,7.9 µM,"Cc1cc(N2CCN(c3nc4ccccc4s3)CC2)n2ncnc2n1 [2-[4-(5-methyl-[1,2,4]triazolo[1,5-a]pyrimidin-7-yl)-1-piperazinyl]-1,3-benzothiazole]"
–,> 95 µM,CCC(NC(=O)Nc1nnc(C(F)(F)F)s1)(C(F)(F)F)C(F)(F)F
–,4.15 µM,O=C(Nc1ccc(N2CCCC2)c(Cl)c1)c1ccc(Br)o1 [5-bromanyl-N-(3-chloranyl-4-pyrrolidin-1-yl-phenyl)furan-2-carboxamide]
–,> 3 µM,"O=S(=O)(C/C(=C/CO)S(=O)(=O)c1ccccc1)c1ccccc1 [(Z)-3,4-bis(benzenesulfonyl)but-2-en-1-ol]"
–,9.02 µM,CCOc1ccc(-c2nc(CSCC(=O)N3CCN(c4cccc(OC)c4)CC3)c(C)o2)cc1 [1-[4-(3-methoxyphenyl)piperazino]-2-[(5-methyl-2-p-phenetyl-oxazol-4-yl)methylthio]ethanone]
–,2.66 µM,"Cc1ccc(OCc2nc(-c3ccccc3)no2)c(C)c1 [5-[(2,4-dimethylphenoxy)methyl]-3-phenyl-1,2,4-oxadiazole]"
–,2.43 µM,"Cc1ccc(C(C)C)c(OCc2ccc(-c3nnco3)cc2)c1 [2-[4-[(2-isopropyl-5-methyl-phenoxy)methyl]phenyl]-1,3,4-oxadiazole]"
–,9.76 µM,CC(=O)c1ccc(NC(=O)N2CCN(c3cccc(Cl)c3)CC2)cc1 [4-(3-chlorophenyl)-N-(4-ethanoylphenyl)piperazine-1-carboxamide]
–,4.18 µM,"Cc1cc(C)n2nc(SCC(=O)c3cc(C)n(-c4cc(C)on4)c3C)nc2n1 [1-[2,5-dimethyl-1-(5-methyl-1,2-oxazol-3-yl)pyrrol-3-yl]-2-[(5,7-dimethyl-[1,2,4]triazolo[1,5-a]pyrimidin-2-yl)sulfanyl]ethanone]"
–,0.147 µM,"CCOc1ccc(-c2nc(-c3ccccc3)no2)cc1OCC [5-(3,4-diethoxyphenyl)-3-phenyl-1,2,4-oxadiazole]"
17.4 µM,–,"COc1cccc(-c2nnc3sc(C4CCCCC4)nn23)c1 [6-cyclohexyl-3-(3-methoxyphenyl)-[1,2,4]triazolo[3,4-b][1,3,4]thiadiazole]"
13.7 µM,–,COc1ccc(S(=O)(=O)Cc2ccc(C(=O)N3CCN(c4ccc(Cl)cc4)CC3)o2)cc1 [MLS000120227]
–,> 10 µM,CN(CC1CCCO1)S(=O)(=O)c1ccc(C(=O)Nc2nc(-c3ccccn3)cs2)cc1 (centres undefined) [4-[methyl(2-oxolanylmethyl)sulfamoyl]-N-[4-(2-pyridinyl)-2-thiazolyl]benzamide]
–,4.39 µM,CCCc1ccc(OCc2nc(-c3ccc(NC(=O)c4ccco4)cc3)no2)cc1 [MLS000097352]
–,> 30 µM,CCSc1nnc(NC(=O)C(Cc2ccccc2)n2cccc2)s1 (centres undefined) [MLS000119034]
–,6.68 µM,COCCN(C(=O)c1ccccc1)c1nnc(-c2cccnc2)s1 [MLS000032523]
–,9.7 µM,"CN(C)CC(C(=O)c1ccccc1)c1ccccc1 (centres undefined) [3-(dimethylamino)-1,2-diphenyl-1-propanone;hydrochloride]"
–,5.96 µM,"CCCCn1nnnc1SCC(=O)c1ccc(C)c(C)c1 [2-(1-Butyl-1H-tetrazol-5-ylsulfanyl)-1-(3,4-dimethyl-phenyl)-ethanone]"
12.1 µM,–,"Cc1ccc(C(=O)Nc2nc(COc3ccccc3)cs2)s1 [5-methyl-N-[4-(phenoxymethyl)-1,3-thiazol-2-yl]thiophene-2-carboxamide]"
–,7.68 µM,O=S(=O)(Nc1ccc2c(c1)OCCO2)c1ccc2oc3ccccc3c2c1 [MLS000051884]
–,3.86 µM,"Clc1ccc(OCc2nc(-c3ccncc3)no2)c(Br)c1 [5-[(2-bromanyl-4-chloranyl-phenoxy)methyl]-3-pyridin-4-yl-1,2,4-oxadiazole]"
51.8 µM,–,CCCc1cc2c(=O)c(-c3ccccn3)coc2cc1OC [7-methoxy-6-propyl-3-(2-pyridinyl)-1-benzopyran-4-one]

SMILES,EC50 [1],EC50
"CCCCOc1ccc(S(=O)(=O)Nc2cc(OC)ccc2OC)cc1 [4-butoxy-N-(2,5-dimethoxyphenyl)benzenesulfonamide]",12.9 µM,–

# Source: BindingDB's records for doi:10.7270/Q2251GJ9 (The Scripps Research Institute Molecular Screening Center, 2007)
